Data taken from US5098900A, “3(2H)pyridazinone, process for its preparation and anti-allergic agent containing it” (Nissan Chemical Industries Ltd., priority 1984, dated 1992).

Assays:
LTD4 = LTD4 antagonism in isolated guinea-pig trachea (LTD4-induced contraction); assay type: cell-based; details: Cavia porcellus, 5 min, test compound 10^-5 g/ml, LTD4 2×10^-8 g/ml
Procedure: (§1) (ii) LTC4 and LTD4 antagonisms in guinea-pig trachea
(§2) Antagonism for LTC4 and LTD4 were determined in isolated guinea-pig trachea prepared as spiral strip. 10 Tracheal preparations were suspended under 1 g tension in […] and they were incubated for 1 hr prior to use. Contractile responses to LTC4 (2×10^-8 g/ml) and LTD4 (2×10^-8 g/ml) were obtained after the maximal response to histamine (10^-4 M). Test compounds dissolved in 100% dimethyl sulfoxide were added to the organ baths (final concentration of 10^-5 g/ml) 5 min prior to LTC4 and LTD4 addition, and then contractile responses to LTC4 and LTD4 were compared with those of control which was obtained from a paired trachea in the absence of test compounds. LTC4 - and LTD4 -induced contractions were expressed as a percentage of the maximal response to histamine. The antagonism was determined as follows: Antagonism (%)=(1.0-% contraction in test/% contraction in control)×100

[1] = tested on: antigen-induced anaphylactic bronchoconstriction; assay: Effect on anaphylactic bronchoconstriction in passively sensitized guinea-pig; assay type: in vivo; details: 2 mg/kg, i.v.; EA 0.1 mg/kg; Tween 80
Procedure: (iii) Effect on anaphylactic bronchoconstriction in passively sensitized guinea-pig
Male guinea-pigs (350-450 g) were passively sensitized with intravenous (i.v.) injection of 0.125 ml rabbit anti-EA serum (Cappel Laboratories) 1 day preceding the experiment. […] The right jugular vein was cannulated for the administration of the all agents and trachea was cannulated to record total pulmonary resistance. Guinea-pigs were artificially ventilated by a small animal respirator (Shinano, Model SN-480-7) set at a stroke volume of 4-5 ml and a rate of 50 breaths per min. […] The increase in air overflow volume was expressed as a percentage of the maximum bronchoconstriction obtained by clamping off the trachea. Following surgical preparation, the animals were pretreated with indomethacin (1.0 mg/kg, 10 min), pyrilamine (2 mg/kg, 6 min) and propranolol (0.1 mg/kg, 5 min) prior to the EA challenge (0.1 or 10 mg/kg). All test compounds, 2 mg/kg in 3% Tween 80 or 3% PEG-400, were administered 1 min before the EA challenge. Inhibition (%) of bronchoconstriction was determined as follows Inhibition (%)=(1.0% -maximum bronchoconstriction in test/% maximum bronchoconstriction in control) ×100.
In the Table, the dose of EA was 10 mg/kg, and each compound was dissolved or suspended in 3% Tween 80.
In the Table, the dose of EA was 0.1 mg/kg.
*: PEG represents polyethylene glycol400.

LTC4 = LTC4 antagonism in isolated guinea-pig trachea (LTC4-induced contraction); assay type: cell-based; details: Cavia porcellus, 5 min, test compound 10^-5 g/ml; LTC4 2×10^-8 g/ml; guinea-pig trachea; read-out: LTC4 antagonism
Procedure: as §1, §2

CCOc1cc(OC)ccc1CNc1cnn(C(C)C)c(=O)c1Cl [compound 109]
inhibition at 10 µg/mL (LTD4): 92% | Inhibition of anaphylactic bronchoconstriction [1]: 30%

CCCOc1cc(OC)ccc1CNc1cnn(CC)c(=O)c1Cl [compound 112]
inhibition at 10 µg/mL (LTD4): 86% | Inhibition of anaphylactic bronchoconstriction [1]: 49%

CC(C)n1ncc(NCc2ccc3c(c2)OCO3)c(Cl)c1=O [compound 119]
inhibition at 10 µg/mL (LTD4): 100% | inhibition at 10 µg/mL (LTC4): 100% | Inhibition of anaphylactic bronchoconstriction [1]: 33%

CCOc1cc(CNc2cnn(CC)c(=O)c2Cl)ccc1O [compound 136]
inhibition at 10 µg/mL (LTD4): 64%

COc1ccc(CNc2cnn(C(C)C)c(=O)c2Cl)cc1O [compound 138]
inhibition at 10 µg/mL (LTD4): 86%

COc1ccc(CNc2cnn(C(C)C)c(=O)c2Cl)cc1OCCCCC(=O)OC(C)(C)C [compound 141]
inhibition at 10 µg/mL (LTD4): 90%

COc1ccc(CNc2cnn(C(C)C)c(=O)c2Cl)cc1OCCCCC(=O)O [compound 143]
inhibition at 10 µg/mL (LTD4): 28%

COC(=O)CCCCOc1cc(CNc2cnn(C(C)C)c(=O)c2Cl)ccc1OC [compound 145]
inhibition at 10 µg/mL (LTD4): 81%

COCCOc1cc(CNc2cnn(C(C)C)c(=O)c2Cl)ccc1OC [compound 148]
inhibition at 10 µg/mL (LTD4): 62%

CCOc1cccc(CNc2cnn(C(C)C)c(=O)c2C)c1 [compound 152]
inhibition at 10 µg/mL (LTD4): 75%

CCCOc1cc(CNc2cnn(C(C)C)c(=O)c2C)ccc1OC [compound 153]
inhibition at 10 µg/mL (LTD4): 45%

CCn1ncc(NCc2ccc(OC)cc2)c(Br)c1=O [compound 154]
inhibition at 10 µg/mL (LTD4): 100%

CCOc1ccc(CNc2cnn(CC)c(=O)c2Br)cc1 [compound 155]
inhibition at 10 µg/mL (LTD4): 60%

CCOc1cccc(CNc2cnn(CC)c(=O)c2Br)c1 [compound 156]
inhibition at 10 µg/mL (LTD4): 72%

CCCOc1cccc(CNc2cnn(CC)c(=O)c2Br)c1 [compound 157]
inhibition at 10 µg/mL (LTD4): 88%

CCn1ncc(NCc2ccc(C)cc2C)c(Br)c1=O [compound 158]
inhibition at 10 µg/mL (LTD4): 99%

CCn1ncc(NCc2ccc(OC)cc2OC)c(Br)c1=O [compound 159]
inhibition at 10 µg/mL (LTD4): 98%

CCOc1cc(CNc2cnn(CC)c(=O)c2Br)ccc1OC [compound 160]
inhibition at 10 µg/mL (LTD4): 98%

CCCOc1cc(CNc2cnn(CC)c(=O)c2Br)ccc1OC [compound 161]
inhibition at 10 µg/mL (LTD4): 95%

COc1ccc(CNc2cnn(C(C)C)c(=O)c2Br)cc1 [compound 162]
inhibition at 10 µg/mL (LTD4): 100%

COc1cccc(CNc2cnn(C(C)C)c(=O)c2Br)c1 [compound 163]
inhibition at 10 µg/mL (LTD4): 95%

CCOc1cccc(CNc2cnn(C(C)C)c(=O)c2Br)c1 [compound 165]
inhibition at 10 µg/mL (LTD4): 71%

CCOc1cc(CNc2cnn(C(C)C)c(=O)c2Br)ccc1OC [compound 166]
inhibition at 10 µg/mL (LTD4): 100%

CCCOc1cc(CNc2cnn(C(C)C)c(=O)c2Br)ccc1OC [compound 167]
inhibition at 10 µg/mL (LTD4): 96%

Cc1ccc(CNc2cnn(C(C)C)c(=O)c2Br)c(C)c1 [compound 168]
inhibition at 10 µg/mL (LTD4): 99%

COc1ccc(CNc2cnn(C(C)C)c(=O)c2Br)c(OC)c1 [compound 169]
inhibition at 10 µg/mL (LTD4): 100%
